These are literature values, as cited in US20070286875A1 (Morton Grove Pharmaceuticals, Inc., priority 2006, published 2007).

For data set [1] the following is noted: 10 mg once daily with erythromycin, cimetidine, ketoconazole.

For the compound `CCOC(=O)N1CCC(=C2c3ccc(Cl)cc3CCc3cccnc32)CC1` [loratadine, ethyl 4-(8-chloro-5,6-dihydro-11H-benzo[5,6]cyclohepta[1,2-b]pyridin-11-ylidene)-1-piperidinecarboxylate], the “changes in safety profile on co-administration” value in data set [1] is recorded as “no clinically relevant changes”. For the same compound, the “binding to peripheral versus central nervous system H1-receptors” value in the data set with H1-receptors is on record as “preferential binding to peripheral”.
